From paper PMC3795738 (PLoS ONE, 2013)
Where two headings read alike, the source gives them in different places.

T1: CapB1 (Met1 to Glu228), as it stands in the CapA1B1 chimera (Staphylococcus aureus, UniProt A8YPQ8 1-228)
T1 construct: also called Cap5B1; source: E. coli BL21(DE3), purified (IMAC, gel filtration) as part of the chimera CapA1B1
T1 sequence: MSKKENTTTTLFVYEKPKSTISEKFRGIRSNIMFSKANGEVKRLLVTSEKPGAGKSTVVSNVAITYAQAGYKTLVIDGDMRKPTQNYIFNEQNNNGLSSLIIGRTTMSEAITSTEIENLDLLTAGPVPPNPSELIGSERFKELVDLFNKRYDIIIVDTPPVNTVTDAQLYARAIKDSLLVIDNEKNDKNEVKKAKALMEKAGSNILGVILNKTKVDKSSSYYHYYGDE

B1: CapA1 C-terminal juxtamembrane fragment (Val194 to Asn222), as it stands in the CapA1B1 chimera (domain or fragment)
chain: VIFDKRIKDEEDVEKELGLPVLGSIQKFN
notes: also called Cap5A1; source: E. coli BL21(DE3), purified (IMAC, gel filtration) as part of the chimera CapA1B1

Tests used:
[1] = molecular target: T2, CapB2 and CapA1Ct (GST-CapA1Ct) (Staphylococcus aureus, UniProt A8YPQ5+A8YPQ6); settings: 10 µM ATP, 5 mM MgCl2, pH 7.5, 37°C; labelled compound; GST-CapA1Ct as activator
Target sequence in this assay (A8YPQ5 entry or part of it, one chain of several): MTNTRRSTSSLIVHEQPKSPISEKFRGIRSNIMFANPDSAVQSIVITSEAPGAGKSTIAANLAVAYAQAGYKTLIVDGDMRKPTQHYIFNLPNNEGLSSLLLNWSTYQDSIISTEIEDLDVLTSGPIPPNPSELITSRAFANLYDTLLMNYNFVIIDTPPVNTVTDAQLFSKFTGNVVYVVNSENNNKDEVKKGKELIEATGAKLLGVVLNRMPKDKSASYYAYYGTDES

[2] = molecular target: T2, CapB2 and CapA1Ct (GST-CapA1Ct); settings: 10 µM ATP, 5 mM MgCl2, pH 7.5, 37°C; labelled compound; GST-CapA1Ct(ΔN222) as activator
Target sequence in this assay (A8YPQ5 entry or part of it, one chain of several): as above

[3] = molecular target: T1, CapB1 (Met1 to Glu228), as it stands in …; assay: crystal structure; settings: both partners purified

| Molecule | autophosphorylation with [γ-32P]ATP, SDS-PAGE, autoradiography [1] | autophosphorylation with [γ-32P]ATP, SDS-PAGE, autoradiography [2] | binding result [3] |
| --- | --- | --- | --- |
| Nc1ncnc2c1ncn2[C@@H]1O[C@H](COP(=O)(O)OP(=O)(O)OP(=O)(O)O)[C@@H](O)[C@H]1O [ATP] | CapB2 was incubated in the presence of radioactive ATP and different (wild type or mutated) | the Asn222 deletion did not affect the CapA1 ability to trigger CapB2 autophosphorylation |  |
| B1 |  |  | binds |
